Assay results taken from patent US20060116397A1, “Use of saquinavir as a radiation sensitizer” (The Trustees of the University of Pennsylvania, priority 2004, published 2006).
“Also recorded” adds a separate entry of the source.

Legend:
cells in tissue culture = test: Toxicity to cells in tissue culture; format: cell-based
Akt [1] = test: Western blot of Akt phosphorylation in white blood cells of HIV patients; format: in vivo, human; details: HIV patients taking saquinavir vs HIV patients not using saquinavir
Description: As a proof of principle, it was examined whether there was down-regulation of Akt in HIV patients who are being actively treated with HPIs. Blood samples were obtained from HIV patients on courses of various combinations of drugs. WBCs were isolated and stained for Akt using a Western Blot.

Akt [2] = test: Western blot analysis of Akt phosphorylation in SQ2OB head-and-neck cancer cell line; format: cell-based, human; details: SQ2OB cells, 25 μM saquinavir, within 20 minutes, Western blot (FIG. 3)
Description: Using Western blot analysis, a human head-and-neck cancer cell line, SQ2OB, containing a constitutively-active EGFR receptor and thus, increased signaling through PI3K, was examined for Akt phosphorylation.

T24 cells = test: Clonogenic assay, radiation sensitization (surviving fraction after 2 Gy); format: cell-based
Procedure: Cultures of cells in log growth phase were counted and plated in 60-mm dishes containing 4 ml of media. The cells were allowed to attach and saquinavir was added to cultures at least one hour prior to irradiation. Cells were irradiated with a Mark I cesium irradiator (J. L. Shepherd, San Fernando, Calif.) at a dose rate of 1.6 Gy/min. Colonies were stained and counted 10-14 days after irradiation. A light box was used to assist in counting colonies. The surviving fraction was calculated by dividing the number of colonies formed by the number of cells plated times plating efficiency (Table 1). Each point value represents the mean surviving fraction from at least six replicate dishes.

Compound: CC(C)(C)NC(=O)[C@@H]1C[C@@H]2CCCC[C@@H]2CN1C[C@@H](O)[C@H](Cc1ccccc1)NC(=O)[C@H](CC(N)=O)NC(=O)c1ccc2ccccc2n1 [saquinavir]
- toxicity to cells in tissue culture (cells in tissue culture): toxic to cells in tissue culture
- Akt phosphorylation in white blood cells (Akt [1]): decreased Akt phosphorylation; also recorded: lower levels of Akt phosphorylation
- Akt phosphorylation at Ser 473 and at Thr 308 (Akt [2]): down-regulation of Akt phosphorylation at Ser 473 and at Thr 308
- difference in cell kill (enhanced kill) vs radiation alone (T24 cells; T24, 30 fractions of 2 Gy): ~5 log
- surviving fraction after 2 Gy (SF2) (T24 cells; T24 cells, 10 μM saquinavir + 2 Gy radiation, control 56%): 36%
- saquinavir SF2 (T24 cells; T24 cells, saquinavir added at least one hour prior to irradiation, colonies counted 10-14 days after, mean of at least six dishes, control 0.560 +/− 0.061): 0.380 +/− 0.168
